Experimental data from PMC7321319, “Comparative Molecular Transporter Properties of Cyclic Peptides Containing Tryptophan and Arginine Residues Formed through Disulfide Cyclization” (Molecules, 2020).

System: LLC-PK1, CCRF-CEM, CRL-1739, MDA-MB-231 and SKOV-3 cell lines
Assay: MTS cell viability assay, statements over the whole cell line panel
Assay type: cell-based
Settings: Dox 5 µM, 24 and 72 h, 37 °C, n = 3
Experimental: To evaluate the cytotoxicity of synthesized linear (C(WR)xC) and cyclic [C(WR)xC] […] Doxorubicin (Dox, 5 µM) was used as a positive control.
The in vitro cytotoxicity of the peptides was evaluated using the human leukemia carcinoma cell line (CCRF-CEM), normal kidney cell line (LLC-PK1), gastric adenocarcinoma (CRL-1739), ovarian (SKOV-3), and breast carcinoma (MDA-MB-231) cell lines to determine the toxicity of the peptides according to the previously reported procedure [17]. CCRF-CEM cells were seeded at 50,000 cells in 0.1 mL per well in 96-well plates. Other cells were seeded at 5,000 cells in 0.1 mL per well in 96-well plates. All cell lines were seeded in RPMI-1640 medium (pH 7.4) containing FBS (10%), 24 h prior to the experiment. […] This generates formazan crystals which are soluble in cell culture medium and can be measured at 490 nm. Cell viability was then determined by measuring the fluorescence intensity at 490 nm using a SpectraMaxM2 microplate spectrophotometer (Molecular Devices, San Jose, CA, USA). The percentage of cell survival was calculated as [(OD value of cells treated with the test mixture of compounds)−(OD value of culture medium)]/[(OD value of control cells) − (OD value of culture medium)] × 100%.

COc1cccc2c1C(=O)c1c(O)c3c(c(O)c1C2=O)C[C@@](O)(C(=O)CO)C[C@@H]3O[C@H]1C[C@H](N)[C@H](O)[C@H](C)O1 [Dox, Doxorubicin]
cytotoxicity (percentage of cell survival), positive control: cytotoxic even at 5 µM
